Measured values published in the supplement of paper PMC11208160.

Assay: recombinant UMI read abundance after kanamycin selection (control-corrected) (log10(CPM+1)); higher = more efficient recombination; extreme values may be limits of the assay; sequences stand for … in AGTGCAGAGAAAATCGGCCAGTTTTCTCTGCCTGCAGTCCGCATGCCGTGGGACCCCTTGGGTTCTAACCTGTTGCCTAGATTTATGCAGCGGACTGCCTTTCTCCCAAAGTGATAAACCGG…AGGTTGGTTTCACT; site = the 11-nt donor
Summary of the method: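 In a pooled Escherichia coli screen for the IS621 bridge recombinase, donor and donor-binding-loop pairs were each placed with a 12-nt UMI on a plasmid bearing a promoterless kanamycin gene. This library was co-electroporated with a target plasmid encoding a fixed target and T7-inducible recombinase, and cells were plated either on IPTG (0.07 mM) plus kanamycin or without selection, in two replicates each. Recombinant UMIs were PCR-amplified across the donor–target junction and sequenced, and counts were converted to CPM, averaged over replicates, scaled by control-derived factors and reported as log10(CPM+1).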
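Note: IS621 bridge recombinase in Escherichia coli cells against a fixed T5 target plasmid.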

| Sequence | recombinant UMI read abundance (log10) |
| --- | --- |
| CAATGCACATGGACCGGTTTTCCCGGTAATCCGTATTTGAA (site CAATGCTCTTT) | 0.438 |
| CAATGCTCATGGACCGGTTTTCCCGGTAATCCGTATTTGCA (site CAATGCTCTTA) | 1.1 |
| CAATGCTCATGGACCGGTTTTCCCGGTAATCCGTATTTGCA (site CAATGCTCTTC) | 0 |
| CAATGCTCATGGACCGGTTTTCCCGGTAATCCGTATTTGCA (site CAATGCTCTTG) | 2.35 |
| CAATGCTCATGGACCGGTTTTCCCGGTAATCCGTATTTGCA (site CAATGCTCTTT) | 0.353 |
| CAATGCTCATGGACCGGTTTTCCCGGTAATCCGTATTTGGA (site CAATGCTCTTA) | 2.13 |
| CAATGCTCATGGACCGGTTTTCCCGGTAATCCGTATTTGGA (site CAATGCTCTTC) | 2.46 |
| CAATGCTCATGGACCGGTTTTCCCGGTAATCCGTATTTGGA (site CAATGCTCTTG) | 1.83 |
| CAATGCTCATGGACCGGTTTTCCCGGTAATCCGTATTTGGA (site CAATGCTCTTT) | 2.45 |
| CAATTCACATGGACCGGTTTTCCCGGTAATCCGTATTTGCT (site CAATTCACTAG) | 1.32 |
| CAATTCACATGGACCGGTTTTCCCGGTAATCCGTATTTGCT (site CAATTCCCTAG) | 0 |
| CAATTCACATGGACCGGTTTTCCCGGTAATCCGTATTTGCT (site CAATTCGCTAG) | 0.587 |
| CAATTCACATGGACCGGTTTTCCCGGTAATCCGTATTTGCT (site CAATTCTCTAG) | 0 |
| CAATTCCCATGGACCGGTTTTCCCGGTAATCCGTATTTGCC (site CAATTCCCTAG) | 0.635 |
| CAATTCCCATGGACCGGTTTTCCCGGTAATCCGTATTTGCC (site CAATTCCCTCG) | 0.0185 |
| CAATTCCCATGGACCGGTTTTCCCGGTAATCCGTATTTGCC (site CAATTCCCTGG) | 0 |
| CAATTCCCATGGACCGGTTTTCCCGGTAATCCGTATTTGCC (site CAATTCCCTTG) | 0 |
| CAATTCCCATGGACCGGTTTTCCCGGTAATCCGTATTTGGT (site CAATTCCCTAA) | 0.173 |
| CAATTCCCATGGACCGGTTTTCCCGGTAATCCGTATTTGGT (site CAATTCCCTAC) | 0.529 |
| CAATTCCCATGGACCGGTTTTCCCGGTAATCCGTATTTGGT (site CAATTCCCTAG) | 0 |
| CAATTCCCATGGACCGGTTTTCCCGGTAATCCGTATTTGGT (site CAATTCCCTAT) | 0.681 |
| CAATTGACATGGACCGGTTTTCCCGGTAATCCGTATTTGAA (site CAATTGACTTT) | 2.17 |
| CAATTTCCATGGACCGGTTTTCCCGGTAATCCGTATTTGCT (site CAATTACCTAG) | 0 |
| CAATTTCCATGGACCGGTTTTCCCGGTAATCCGTATTTGCT (site CAATTCCCTAG) | 0.761 |
| CAATTTCCATGGACCGGTTTTCCCGGTAATCCGTATTTGCT (site CAATTGCCTAG) | 0.00704 |

| Sequence | recombinant UMI read abundance (log10) |
| --- | --- |
| CAATTTCCATGGACCGGTTTTCCCGGTAATCCGTATTTGCT (site CAATTTCCTAG) | 1.08 |
| CACAAATCATGGACCGGTTTTCCCGGTAATCCGTATTTGAC (site CACAAATCTGT) | 1.62 |
| CACAGCCCATGGACCGGTTTTCCCGGTAATCCGTATTTGTT (site CACAGCCCTAA) | 0.97 |
| CACAGCCCATGGACCGGTTTTCCCGGTAATCCGTATTTGTT (site CACCGCCCTAA) | 0.00684 |
| CACAGCCCATGGACCGGTTTTCCCGGTAATCCGTATTTGTT (site CACGGCCCTAA) | 0.0224 |
| CACAGCCCATGGACCGGTTTTCCCGGTAATCCGTATTTGTT (site CACTGCCCTAA) | 0.018 |
| CACAGTGCATGGACCGGTTTTCCCGGTAATCCGTATTTGAT (site CACAGTGCTAT) | 2.52 |
| CACATGGCATGGACCGGTTTTCCCGGTAATCCGTATTTGCC (site CACATGGCTGG) | 0 |
| CACCCTACATGGACCGGTTTTCCCGGTAATCCGTATTTGAG (site CACCCTACTCT) | 1.27 |
| CACCCTACATGGACCGGTTTTCCCGGTAATCCGTATTTGAG (site CCCCCTACTCT) | 0.0201 |
| CACCCTACATGGACCGGTTTTCCCGGTAATCCGTATTTGAG (site CGCCCTACTCT) | 0.0118 |
| CACCCTACATGGACCGGTTTTCCCGGTAATCCGTATTTGAG (site CTCCCTACTCT) | 0.0244 |
| CACCCTACATGGACCGGTTTTCCCGGTAATCCGTATTTGGC (site CACCCTACTGC) | 2.59 |
| CACCTTACATGGACCGGTTTTCCCGGTAATCCGTATTTGTC (site CACCTTACTGA) | 0 |
| CACGACCCATGGACCGGTTTTCCCGGTAATCCGTATTTGTT (site CACGACCCTAA) | 0.631 |
| CACGACCCATGGACCGGTTTTCCCGGTAATCCGTATTTGTT (site CACGCCCCTAA) | 0.0282 |
| CACGACCCATGGACCGGTTTTCCCGGTAATCCGTATTTGTT (site CACGGCCCTAA) | 0.0138 |
| CACGACCCATGGACCGGTTTTCCCGGTAATCCGTATTTGTT (site CACGTCCCTAA) | 0.00755 |
| CACGCATCATGGACCGGTTTTCCCGGTAATCCGTATTTGAT (site CACGCATCTAT) | 2.51 |
| CACGCGACATGGACCGGTTTTCCCGGTAATCCGTATTTGGC (site CACGCGACTGC) | 2.94 |
| CACGCTCCATGGACCGGTTTTCCCGGTAATCCGTATTTGTC (site CACGCTCCTGA) | 2.39 |
| CACGGACCATGGACCGGTTTTCCCGGTAATCCGTATTTGTT (site CACGGACCTAA) | 0.00996 |
| CACGGACCATGGACCGGTTTTCCCGGTAATCCGTATTTGTT (site CACGGCCCTAA) | 0.403 |
| CACGGACCATGGACCGGTTTTCCCGGTAATCCGTATTTGTT (site CACGGGCCTAA) | 0.387 |
| CACGGACCATGGACCGGTTTTCCCGGTAATCCGTATTTGTT (site CACGGTCCTAA) | 0 |

| Sequence | recombinant UMI read abundance (log10) |
| --- | --- |
| CACGGCCCATGGACCGGTTTTCCCGGTAATCCGTATTTGCT (site CACGGCCCTAA) | 0.0432 |
| CACGGCCCATGGACCGGTTTTCCCGGTAATCCGTATTTGCT (site CACGGCCCTAC) | 0.0286 |
| CACGGCCCATGGACCGGTTTTCCCGGTAATCCGTATTTGCT (site CACGGCCCTAG) | 1.12 |
| CACGGCCCATGGACCGGTTTTCCCGGTAATCCGTATTTGCT (site CACGGCCCTAT) | 0.636 |
| CACGGCCCATGGACCGGTTTTCCCGGTAATCCGTATTTGTG (site CACGGCCCTAA) | 0.0211 |
| CACGGCCCATGGACCGGTTTTCCCGGTAATCCGTATTTGTG (site CACGGCCCTCA) | 0.0766 |
| CACGGCCCATGGACCGGTTTTCCCGGTAATCCGTATTTGTG (site CACGGCCCTGA) | 0 |
| CACGGCCCATGGACCGGTTTTCCCGGTAATCCGTATTTGTG (site CACGGCCCTTA) | 0.00311 |
| CACGGTCCATGGACCGGTTTTCCCGGTAATCCGTATTTGCA (site CACGGTCCTTG) | 1.74 |
| CACGGTCCATGGACCGGTTTTCCCGGTAATCCGTATTTGCA (site CCCGGTCCTTG) | 0 |
| CACGGTCCATGGACCGGTTTTCCCGGTAATCCGTATTTGCA (site CGCGGTCCTTG) | 0 |
| CACGGTCCATGGACCGGTTTTCCCGGTAATCCGTATTTGCA (site CTCGGTCCTTG) | 0 |
| CACGGTCCATGGACCGGTTTTCCCGGTAATCCGTATTTGTT (site CACGGACCTAA) | 0.00385 |
| CACGGTCCATGGACCGGTTTTCCCGGTAATCCGTATTTGTT (site CACGGCCCTAA) | 0.18 |
| CACGGTCCATGGACCGGTTTTCCCGGTAATCCGTATTTGTT (site CACGGGCCTAA) | 0.00486 |
| CACGGTCCATGGACCGGTTTTCCCGGTAATCCGTATTTGTT (site CACGGTCCTAA) | 1.4 |
| CACGTACCATGGACCGGTTTTCCCGGTAATCCGTATTTGCT (site CACGTACCTAG) | 0.0043 |
| CACTACTCATGGACCGGTTTTCCCGGTAATCCGTATTTGCC (site CACTACTCTGG) | 2.55 |
| CACTACTCATGGACCGGTTTTCCCGGTAATCCGTATTTGCC (site CACTCCTCTGG) | 0.801 |
| CACTACTCATGGACCGGTTTTCCCGGTAATCCGTATTTGCC (site CACTGCTCTGG) | 0.737 |
| CACTACTCATGGACCGGTTTTCCCGGTAATCCGTATTTGCC (site CACTTCTCTGG) | 0 |
| CACTAGGCATGGACCGGTTTTCCCGGTAATCCGTATTTGGA (site CACTAGGCTTC) | 0.727 |
| CACTAGGCATGGACCGGTTTTCCCGGTAATCCGTATTTGGA (site CACTCGGCTTC) | 0.0143 |
| CACTAGGCATGGACCGGTTTTCCCGGTAATCCGTATTTGGA (site CACTGGGCTTC) | 0.0136 |
| CACTAGGCATGGACCGGTTTTCCCGGTAATCCGTATTTGGA (site CACTTGGCTTC) | 0.0198 |
